Test results as given in article PMC10799085, “A miniaturized mode-of-action profiling platform enables high throughput characterization of the molecular and cellular dynamics of EZH2 inhibition” (Scientific Reports, 2024).
Read-outs that look alike come from different tables or passages of the source.

Assays:
PRC2/EZH2+/+ [1] = target: T1, PRC2/EZH2+/+ (Homo sapiens, UniProt Q15910); test: Equilibrium probe competition assay (ePCA), TR-FRET; type: binding
T1 construct: purchased Active Motif

PRC2/EZH2Y641N [2] = target: T2, PRC2/EZH2Y641N (Homo sapiens, UniProt Q15910, Y641N); test: Scintillation proximity assay (SPA) of H3K27 methylation; type: biochemical
T2 construct: Synthetic cDNA encoding N-terminal 6His-tagged full length EZH2^Y641N; 6His (N); made in house; host or cells: Sf9 insect cells (baculovirus co-infection)
Protocol: (§1) Assay-ready plates containing 50 nl of compound dilutions and DMSO controls were filled with 2.5 µL enzyme solution and pre-incubated for 15 min. […] Experiments were also performed without pre-incubation of enzyme and compounds. In this case, the substrate solution was added before enzyme. The reaction was stopped using 1.6 µg/µl streptavidin beads (Perkin Elmer) and 700 µM of SAM (Perkin Elmer). The plates were sealed with transparent foil.
(§2) For equilibrium binding competition (ePCA) and SPA enzyme inhibition assays, raw data import, quality control, normalization, and curve fitting to a 4-parameter logistic equation for IC50 determination were performed using the Genedata Screener® software (Genedata AG). ePCA Ki values were either calculated using the Cheng-Prussof equation[68] or with the GraphPad Prism model “One-site—Fit Ki”.

PRC2/EZH2+/+ [3] = target: T1, PRC2/EZH2+/+; test: as above; type: biochemical
Protocol: as §1, §2

PRC2/EZH2 Y111L = target: T3, PRC2/EZH2 Y111L (Homo sapiens, UniProt Q15910, Y111L); test: as above; type: biochemical
T3 construct: N-terminal 6His-tagged full length EZH2^Y641N, EZH2^Y111L; 6His (N); made in house; host or cells: Sf9 insect cells (baculovirus co-infection)
Protocol: as §1, §2

PRC2/EZH2Y111D = target: T4, PRC2/EZH2Y111D (Homo sapiens, UniProt Q15910, Y111D); test: as above; type: biochemical
T4 construct: N-terminal 6His-tagged full length EZH2^Y641N, EZH2^Y111L, EZH2^Y111D; 6His (N); made in house; host or cells: Sf9 insect cells (baculovirus co-infection)
Protocol: as §1, §2

PRC2/EZH2Y641N [4] = target: T2, PRC2/EZH2Y641N; test: Kinetic probe competition assay (kPCA), TR-FRET; type: binding
Text: Biotinylated PRC2 complexes and the fluorescent probe used in TR-FRET assays were generated as described in the supplementary methods section.

[5] = EZH2Y641N (+ H3K27me3), RT sheet

Cc1cc(C)c(CN2CCc3c(Cl)cc(-c4c(C)noc4C)c(Cl)c3C2=O)c(=O)[nH]1 [Compound 14]
Ligand Efficiency (PRC2/EZH2+/+ [1]; EZH2+/+ (+ H3K27me3)): 1.6
Ki (PRC2/EZH2+/+ [1]; EZH2+/+ (+ H3K27me3), sheet ePCA&kPCA RT, read-out: Equilibrium Ki): 0.907 nM
Ligand Efficiency (PRC2/EZH2+/+ [1]; EZH2+/+ (- H3K27me3)): 1.5
Ki (PRC2/EZH2+/+ [1]; EZH2+/+ (- H3K27me3), 5 °C, read-out: Ki (Equilibrium)): 1.1 nM
Ki (PRC2/EZH2+/+ [1]; EZH2+/+ (- H3K27me3), 15 °C, read-out: Ki (Equilibrium)): 0.81 nM
Ki (PRC2/EZH2+/+ [1]; EZH2+/+ (- H3K27me3), 30 °C, read-out: Ki (Equilibrium)): 1.96 nM
Ki (PRC2/EZH2+/+ [1]; EZH2+/+ (- H3K27me3), 37 °C, read-out: Ki (Equilibrium)): 2.3 nM
Ki (PRC2/EZH2+/+ [1]; EZH2+/+ (- H3K27me3), sheet ePCA&kPCA RT, read-out: Equilibrium Ki): 1.47 nM
IC50 (PRC2/EZH2Y641N [2]; 0' enzyme:inhibitor pre-incubation, read-out: SPA Mean IC50 (M) - 0' enzyme:inhibitor pre-incubation hEZH2Y641N): 1.5e-08 M
IC50 (PRC2/EZH2Y641N [2]; 15' enzyme:inhibitor pre-incubation, read-out: SPA Mean IC50 (M) - 15' enzyme:inhibitor pre-incubation EZH2Y641N): 1.1e-08 M
IC50 (PRC2/EZH2Y641N [2]; 60' enzyme:inhibitor pre-incubation, read-out: SPA Mean IC50 (M) - 60' enzyme:inhibitor pre-incubation EZH2Y641N): 1.2e-08 M
Ligand Efficiency - 0' enzyme:inhibitor pre-incubation hEZH2Y641N (PRC2/EZH2Y641N [2]; from SPA pIC50 (1.4*pIC50 / atom count), 0' pre-incubation): 1.4
Ligand Efficiency - 15' enzyme:inhibitor pre-incubation EZH2Y641N (PRC2/EZH2Y641N [2]; from SPA pIC50 (1.4*pIC50 / atom count), 15' pre-incubation): 1.4
Ligand Efficiency - 60' enzyme:inhibitor pre-incubation EZH2Y641N (PRC2/EZH2Y641N [2]; from SPA pIC50 (1.4*pIC50 / atom count), 60' pre-incubation): 1.4
Ligand Efficiency - 0' enzyme:inhibitor pre-incubation EZH2+/+ (PRC2/EZH2+/+ [3]): 1.5
Ligand Efficiency - 15' enzyme:inhibitor pre-incubation EZH2+/+ (PRC2/EZH2+/+ [3]): 1.5
Ligand Efficiency - 60' enzyme:inhibitor pre-incubation EZH2+/+ (PRC2/EZH2+/+ [3]): 1.5
IC50 (PRC2/EZH2+/+ [3]; 0' enzyme:inhibitor pre-incubation, read-out: SPA Mean IC50 (M) - 0' enzyme:inhibitor pre-incubation EZH2+/+): 4.1e-09 M
IC50 (PRC2/EZH2+/+ [3]; 15' enzyme:inhibitor pre-incubation, read-out: SPA Mean IC50 (M) - 15' enzyme:inhibitor pre-incubation EZH2+/+): 1.9e-09 M
IC50 (PRC2/EZH2+/+ [3]; 60' enzyme:inhibitor pre-incubation, read-out: SPA Mean IC50 (M) - 60' enzyme:inhibitor pre-incubation EZH2+/+): 1.8e-09 M
Ligand Efficiency - 0' enzyme:inhibitor pre-incubation EZH2 Y111L (PRC2/EZH2 Y111L): 1.0
Ligand Efficiency - 15' enzyme:inhibitor pre-incubation EZH2 Y111L (PRC2/EZH2 Y111L): 1.1
Ligand Efficiency - 60' enzyme:inhibitor pre-incubation EZH2 Y111L (PRC2/EZH2 Y111L): 1.0
IC50 (PRC2/EZH2 Y111L; 0' enzyme:inhibitor pre-incubation, read-out: SPA Mean IC50 (M) - 0' enzyme:inhibitor pre-incubation EZH2 Y111L): 1.1e-06 M
IC50 (PRC2/EZH2 Y111L; 15' enzyme:inhibitor pre-incubation, read-out: SPA Mean IC50 (M) - 15' enzyme:inhibitor pre-incubation EZH2 Y111L): 9.6e-07 M
IC50 (PRC2/EZH2 Y111L; 60' enzyme:inhibitor pre-incubation, read-out: SPA Mean IC50 (M) - 60' enzyme:inhibitor pre-incubation EZH2 Y111L): 1.1e-06 M
Ligand Efficiency - 0' enzyme:inhibitor pre-incubation EZH2Y111D (PRC2/EZH2Y111D): 0.9
Ligand Efficiency - 15' enzyme:inhibitor pre-incubation EZH2Y111D (PRC2/EZH2Y111D): 0.9
Ligand Efficiency - 60' enzyme:inhibitor pre-incubation EZH2Y111D (PRC2/EZH2Y111D): 0.857
IC50 (PRC2/EZH2Y111D; 0' enzyme:inhibitor pre-incubation, read-out: SPA Mean IC50 (M) - 0' enzyme:inhibitor pre-incubation EZH2Y111D): 1.3e-05 M
IC50 (PRC2/EZH2Y111D; 15' enzyme:inhibitor pre-incubation, read-out: SPA Mean IC50 (M) - 15' enzyme:inhibitor pre-incubation EZH2Y111D): 8.5e-06 M
IC50 (PRC2/EZH2Y111D; 60' enzyme:inhibitor pre-incubation, read-out: SPA Mean IC50 (M) - 60' enzyme:inhibitor pre-incubation EZH2Y111D): 1.3e-05 M
Kinetic Efficiency (PRC2/EZH2Y641N [4]; EZH2Y641N (+ H3K27me3)): 2.02E-02
koff (PRC2/EZH2Y641N [4]; [5]): 0.000921 s⁻¹
kon (PRC2/EZH2Y641N [4]; [5]): 1.28e+06 M⁻¹ s⁻¹
Calculated RT (PRC2/EZH2Y641N [4]; EZH2Y641N (+ H3K27me3)): 0.16 h
Kd (PRC2/EZH2Y641N [4]; EZH2Y641N (+ H3K27me3), kinetic, RT sheet): 0.68 nM
Kinetic Efficiency (PRC2/EZH2Y641N [4]; EZH2Y641N (- H3K27me3)): 2.35E-02
Calculated RT (PRC2/EZH2Y641N [4]; EZH2Y641N (- H3K27me3)): 0.19 h
